# Read-outs that look alike come from different tables or passages of the source.
# Tests used:
# rCB1 receptor = rCB1 receptor (Rattus norvegicus, UniProt P20272); experiment: rCB1 radioligand binding assay, [3H]CP-55,940 competition; conditions: for increase in binding affinity for CB1 compared to lead AMG315: ratio of Ki values
# hCB2 receptor [1] = target: T1, hCB2 receptor (Homo sapiens, UniProt P34972); experiment: hCB2 radioligand binding assay, [3H]CP-55,940 competition, HEK293 membranes; conditions: for higher affinity for CB2 than the lead compound AMG315: ratio of Ki values
# T1 sequence (P34972 whole entry): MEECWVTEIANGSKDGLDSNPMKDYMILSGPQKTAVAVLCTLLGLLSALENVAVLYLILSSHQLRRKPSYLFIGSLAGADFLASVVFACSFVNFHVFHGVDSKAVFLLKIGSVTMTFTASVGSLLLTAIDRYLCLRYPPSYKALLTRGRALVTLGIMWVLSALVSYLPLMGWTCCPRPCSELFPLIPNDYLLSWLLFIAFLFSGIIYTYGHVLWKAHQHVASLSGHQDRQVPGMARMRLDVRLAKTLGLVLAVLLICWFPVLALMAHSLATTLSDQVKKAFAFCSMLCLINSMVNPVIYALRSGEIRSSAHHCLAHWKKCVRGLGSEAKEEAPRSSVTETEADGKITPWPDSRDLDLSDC
# Adult male CD1 mice [2] = experiment: Ring test for catalepsy; format: in vivo; conditions: for immobility time in the ring test vs vehicle: i.p., mice, overall
# Adult male CD1 mice [3] = experiment: Measurement of rectal temperature; format: in vivo; conditions: for body temperature vs vehicle: i.p., mice
# Adult male CD1 mice [4] = experiment: Tail-flick; format: in vivo; conditions: for tail-flick latency in the tail-immersion test vs vehicle: mice, overall
# Adult male CD1 mice [5] = experiment: CFA-induced inflammatory pain model, mechanical paw withdrawal thresholds; format: in vivo; conditions: AM251 5 mg/kg i.p. alone, overall
# hCB2 receptor [6] = target: T1, hCB2 receptor; experiment: Inhibition of forskolin-stimulated cAMP accumulation, 3xHA-hCB2-CHO cells; format: cell-based; conditions: for Emax: read-out: hCB2 receptor cAMP Emax
# hCB2 receptor [7] = target: T1, hCB2 receptor; experiment: β-arrestin 2 recruitment assay; format: cell-based; conditions: for Emax: read-out: hCB2 receptor β-Arrestin 2 Emax
# hCB1 receptor [8] = target: T2, hCB1 receptor (Homo sapiens, UniProt P21554); experiment: cell-based; conditions: for Emax: read-out: hCB1 receptor cAMP Emax, normalized to maximum CP-55,940 = 100
# T2 sequence (P21554 whole entry): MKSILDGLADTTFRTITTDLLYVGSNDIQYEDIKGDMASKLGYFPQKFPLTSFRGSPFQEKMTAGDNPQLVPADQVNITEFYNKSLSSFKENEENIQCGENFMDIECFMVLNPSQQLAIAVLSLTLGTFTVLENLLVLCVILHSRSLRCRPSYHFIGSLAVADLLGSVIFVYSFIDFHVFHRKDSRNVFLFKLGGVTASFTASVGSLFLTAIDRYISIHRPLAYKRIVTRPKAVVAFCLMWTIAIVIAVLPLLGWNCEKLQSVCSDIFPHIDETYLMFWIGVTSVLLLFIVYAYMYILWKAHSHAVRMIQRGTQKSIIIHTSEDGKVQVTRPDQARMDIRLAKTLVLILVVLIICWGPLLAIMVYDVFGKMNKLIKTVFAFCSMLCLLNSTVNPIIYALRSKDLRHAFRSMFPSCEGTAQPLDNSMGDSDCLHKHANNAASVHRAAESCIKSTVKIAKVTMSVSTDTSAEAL
# hCB1 receptor [9] = target: T2, hCB1 receptor; experiment: cell-based; conditions: read-out: hCB1 receptor β-Arrestin 2 Emax
# rCB1 receptor, sequence (P20272 whole entry): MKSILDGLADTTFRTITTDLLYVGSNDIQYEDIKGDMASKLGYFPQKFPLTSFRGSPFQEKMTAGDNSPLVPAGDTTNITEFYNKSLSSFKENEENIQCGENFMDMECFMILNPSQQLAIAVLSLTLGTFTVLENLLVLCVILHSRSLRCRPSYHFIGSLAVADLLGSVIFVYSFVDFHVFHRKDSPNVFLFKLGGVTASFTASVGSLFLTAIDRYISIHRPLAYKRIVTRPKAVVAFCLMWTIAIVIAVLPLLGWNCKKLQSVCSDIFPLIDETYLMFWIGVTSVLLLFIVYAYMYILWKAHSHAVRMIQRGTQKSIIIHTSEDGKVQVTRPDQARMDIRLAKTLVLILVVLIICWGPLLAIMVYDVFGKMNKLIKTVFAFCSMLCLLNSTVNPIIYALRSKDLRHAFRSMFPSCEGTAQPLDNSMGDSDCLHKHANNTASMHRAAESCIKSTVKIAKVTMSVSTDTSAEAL
compound,measurement,setting,value
"C[C@H](/C=C\C/C=C\C/C=C\CCCC(=O)N[C@H](C)CO)/C=C\CCCCCO[N+](=O)[O-] [Compound 16b, (S,6Z,9Z,12Z,15Z)-20-(((R)-1-Hydroxypropan-2-yl)amino)-8-methyl-20-oxoicosa-6,9,12,15-tetraen-1-yl Nitrate]",Ki,rCB1 receptor,1.7 nM
same,increase in binding affinity for CB1 compared to lead AMG315,rCB1 receptor,2–7 fold
same,Ki,hCB2 receptor [1],10.9 nM
"Cc1c(C(=O)NN2CCCCC2)nn(-c2ccc(Cl)cc2Cl)c1-c1ccc(I)cc1 [AM251, 1-(2,4-dichlorophenyl)-5-(4-iodophenyl)-4-methyl-N-1-piperidinyl-1H-pyrazole-3-carboxamide, reference compound]",effect of pretreatment on AM12814-induced catalepsy in the ring test,Adult male CD1 mice [2]; AM251 5 mg/kg ip before AM12814 1 mg/kg ip,blocked
same,effect of pretreatment on hypothermic effect of AM12814,Adult male CD1 mice [3]; AM251 5 mg/kg i.p. before AM12814 1 mg/kg i.p.,abolished
same,effect of pretreatment on tail-flick antinociception of AM12814,Adult male CD1 mice [4]; AM251 5 mg/kg i.p. before AM12814 3 mg/kg i.p.,reduced the overall antinociceptive efficacy
same,"ipsilateral paw withdrawal thresholds, AM251-Veh vs Veh–Veh",Adult male CD1 mice [5],modestly elevated
"C[C@H](/C=C\C/C=C\C/C=C\CCCC(=O)N[C@H](C)CO)/C=C\CCCCCO [Compound 18, (S,5Z,8Z,11Z,14Z)-20-Hydroxy-N-((R)-1-hydroxypropan-2-yl)-13-methylicosa-5,8,11,14-tetraenamide]",Ki,"rCB1 receptor; read-out: rCB1 receptor Ki, rat brain membranes, [3H]CP-55,940, (± 95% CI)",29 nM
"CCCCC/C=C\C/C=C\C/C=C\C/C=C\CCCC(=O)NCCO [AEA, N-arachidonoylethanolamide, reference compound]",Emax,hCB2 receptor [6],27%
same,Emax,hCB2 receptor [7],36%
"C[C@H](/C=C\C/C=C\C/C=C\CCCC(=O)N[C@H](C)CO)/C=C\CCCCC(F)(F)F [Compound 12, (S,5Z,8Z,11Z,14Z)-20,20,20-Trifluoro-N-((R)-1-hydroxypropan-2-yl)-13-methylicosa-5,8,11,14-tetraenamide]",Ki,rCB1 receptor,0.7 nM
same,increase in binding affinity for CB1 compared to lead AMG315,rCB1 receptor,10 fold
same,Ki,hCB2 receptor [1],3.4 nM
same,higher affinity for CB2 than the lead compound AMG315,hCB2 receptor [1],52–80 fold
same,efficacy for the cyclase pathway relative to β-arrestin 2 recruitment in CB1,hCB1 receptor [8]; Emax cAMP vs Emax β-arrestin 2,3 fold
same,hCB1 receptor cAMP Emax,"hCB1 receptor [8]; normalized to maximum CP-55,940 = 100",67.5%
same,Emax,hCB1 receptor [8],67%
same,Emax,hCB1 receptor [9],22%
same,EC50,hCB2 receptor [6],22 nM
same,Emax,hCB2 receptor [6],29%
same,EC50,hCB2 receptor [7],5.6 nM
same,Emax,hCB2 receptor [7],28%
same,immobility time in the ring test vs vehicle,Adult male CD1 mice [2]; 0.3 mg/kg,did not differ reliably from vehicle overall
same,immobility time in the ring test vs vehicle,Adult male CD1 mice [2]; 1 mg/kg,increased immobility time
same,immobility time in the ring test vs vehicle,Adult male CD1 mice [2]; 3 mg/kg,increased immobility time
same,body temperature vs vehicle,Adult male CD1 mice [3]; 0.3 mg/kg,did not alter body temperature at any postinjection time point
same,body temperature vs vehicle,Adult male CD1 mice [3]; 1 mg/kg,reducing body temperature
same,body temperature vs vehicle,Adult male CD1 mice [3]; 3 mg/kg,reducing body temperature
same,earliest time of reduced body temperature postinjection,Adult male CD1 mice [3]; 1 or 3 mg/kg,10 min
same,tail-flick latency in the tail-immersion test vs vehicle,"Adult male CD1 mice [4]; 1 mg/kg, i.p.",increased tail-flick latency
same,tail-flick latency in the tail-immersion test vs vehicle,"Adult male CD1 mice [4]; 3 mg/kg, i.p.",increased tail-flick latency
same,tail-flick latency in the tail-immersion test vs vehicle,"Adult male CD1 mice [4]; low dose, 0.1 mg/kg i.p.",increased tail-flick latency
"C[C@H](/C=C\C/C=C\C/C=C\CCCC(=O)N[C@H](C)CO)/C=C\CCCCCC#N [Compound 16a, (S,5Z,8Z,11Z,14Z)-20-Cyano-N-((R)-1-hydroxypropan-2-yl)-13-methylicosa-5,8,11,14-tetraenamide]",Ki,rCB1 receptor,1.4 nM
same,increase in binding affinity for CB1 compared to lead AMG315,rCB1 receptor,2–7 fold
same,Ki,hCB2 receptor [1],2.2 nM
same,higher affinity for CB2 than the lead compound AMG315,hCB2 receptor [1],52–80 fold
"C[C@H](/C=C\C/C=C\C/C=C\CCCC(=O)N[C@H](C)CO)/C=C\CCCCCBr [Compound 15, (S,5Z,8Z,11Z,14Z)-20-Bromo-N-((R)-1-hydroxypropan-2-yl)-13-methylicosa-5,8,11,14-tetraenamide]",Ki,rCB1 receptor,1.1 nM
same,increase in binding affinity for CB1 compared to lead AMG315,rCB1 receptor,2–7 fold
same,Ki,hCB2 receptor [1],5.3 nM
"CCCCC/C=C\[C@H](C)/C=C\C/C=C\C/C=C\CCCC(=O)N[C@H](C)CO [AMG315, (R)-N-(1-Methyl-2-hydroxyethyl)-13-(S)-methyl-arachidonamide, reference compound]",Emax,hCB1 receptor [8],80.5%
same,Emax,hCB1 receptor [9],38%
same,Emax,hCB2 receptor [6],18%
same,Emax,hCB2 receptor [7],36%
"C[C@H](/C=C\C/C=C\C/C=C\CCCC(=O)N[C@H](C)CO)/C=C\CCCCCF [Compound 21, (S,5Z,8Z,11Z,14Z)-20-Fluoro-N-((R)-1-hydroxypropan-2-yl)-13-methylicosa-5,8,11,14-tetraenamide]",Ki,rCB1 receptor,4.2 nM
same,increase in binding affinity for CB1 compared to lead AMG315,rCB1 receptor,2–7 fold
same,Ki,hCB2 receptor [1],22.2 nM

# From article PMC12915296 (Journal of medicinal chemistry, 2025)
